Data taken from patent US20070178581A1, “Screening method and apparatus for identifying a reactive compound bonding with a target compound” (SHIMADZU CORPORATION, priority 2006, published 2007).

Tested on: WGA (wheat germ lectin)
Assay: Bonding of reactive compound with WGA, analysed by elution from the size-excluding first dimension column
Format: binding
Conditions: 50 mM phosphoric acid buffer pH 6.8/0.8% NaCl, 25° C.
Experimental: FIGS. 8A and 8B show the results of the analysis of the components eluted in the first dimension column in the example shown in FIG. 5. […] The sample used consisted of WGA (1 mg/mL) for the target compound or protein, and p-nitrophenyl-di-N-acetyl-β-chitobioside (0.1 mg/mL) for the reactive compounds. For the first dimension mobile phase, 50 mM phosphoric acid buffer (pH 6.8)/0.8% NaCl solution was used, which was fed at the rate of 0.05 mL/minute. For the first dimension column 10a, a silica-based size-excluding DIOL column (product of Shimadzu Corporation) of 150 mm in length and 2 mm in internal diameter was used, while setting the column oven temperature at 25° C. In the measurements that produced the chromatogram shown in FIG. 8B, 30 μL of WGA or protein was suctioned by the sample injection nozzle 32a, and then 5 μL of p-nitrophenyl-di-N-acetyl-β-chitobioside was suctioned, followed by the injection of the sample from the sample injection nozzle 32a into the sample injection port 8. In FIGS. 8A and 8B, the peaks indicated by the broken lines are the peaks obtained when p-nitrophenyl-di-N-acetyl-β-chitobioside alone was injected into the sample injection port. The peaks of p-nitrophenyl-di-N-acetyl-β-chitobioside appear in different locations in FIGS. 8A and Bbecause the scale on the horizontal axis differs, but the retention time is identical in both graphs.

## CC(=O)N[C@H]1[C@H](Oc2ccc([N+](=O)[O-])cc2)O[C@H](CO)[C@@H](O[C@@H]2O[C@H](CO)[C@@H](O)[C@H](O)[C@H]2NC(C)=O)[C@@H]1O [p-nitrophenyl-di-N-acetyl-β-chitobioside]
Reactive compound (5 μL) injected first, then WGA (30 μL), separately, reaction within the size-excluding column
  bonding state with WGA judged from elution time (FIG. 8B): shifted to the location of the elution time for WGA
Target and reactive compound mixed beforehand and injected as a reaction solution, WGA 1 mg/mL, compound 0.1 mg/mL
  bonding state with WGA judged from elution time (FIG. 8A): has been dissociated from WGA
